Test results taken from the CheMixHub viscosity set.

Test: xn = mol fraction of the nth substance listed

CC(CC(C)(C)C)CP(=O)([O-])CC(C)CC(C)(C)C.CCCC[P+](C)(CCCC)CCCC (centres undefined) + CCCCCCCCCCCC
viscosity [mPa·s], 101 kPa
Settings | 298.15 K | 303.15 K | 308.15 K | 313.15 K | 318.15 K | 323.15 K
x2 = 0.25 | 318 | 214 | 159 | 112 | 81.6 | 60.6
x2 = 0.43 | 88.6 | 67.8 | 53.6 | 41.9 | 34.4 | 27.1
x2 = 0.56 | 39.4 | 31 | 25.4 | 21.7 | 18.3 | 16.1

OC[C@H](O)C(O)[C@@H](O)CO + OC[C@@H](O)[C@H](O)[C@@H](O)CO
Settings | viscosity [mPa·s]
313 K, 101 kPa, x2 = 0.56 | 42740

CCC(C)=O + CCCCCCCO
viscosity [mPa·s], 100 kPa
Settings | x1 = 0.0829 | x1 = 0.1614 | x1 = 0.2389 | x1 = 0.3509 | x1 = 0.4404 | x1 = 0.5592 | x1 = 0.6488 | x1 = 0.7389 | x1 = 0.8502 | x1 = 0.9396
293.15 K | 5.23 | 3.85 | 3.02 | 2.1 | 1.64 | 1.16 | 0.92 | 0.73 | 0.56 | 0.47
303.15 K | 3.72 | 2.97 | 2.31 | 1.69 | 1.31 | 0.9 | 0.73 | 0.6 | 0.45 | 0.39
313.15 K | 2.85 | 2.28 | 1.82 | 1.38 | 1.11 | 0.82 | 0.68 | 0.56 | 0.44 | 0.38
323.15 K | 2.21 | 1.82 | 1.48 | 1.15 | 0.93 | 0.7 | 0.58 | 0.5 | 0.39 | 0.34
